Results reported in patent publication US7482344B2, “Tricyclic steroid hormone nuclear receptor modulators” (Eli Lilly and Company, priority 2003, dated 2009).

These compounds were tested against T1, MR (Homo sapiens, UniProt P08235) (assay: Mineralocorticoid Receptor Binding Assay (Method 1), [3H]-aldosterone competition). Conditions: human MR expressed in Sf9 cells, 0.5 nM [3H]-aldosterone.
T1 sequence (P08235 1-984): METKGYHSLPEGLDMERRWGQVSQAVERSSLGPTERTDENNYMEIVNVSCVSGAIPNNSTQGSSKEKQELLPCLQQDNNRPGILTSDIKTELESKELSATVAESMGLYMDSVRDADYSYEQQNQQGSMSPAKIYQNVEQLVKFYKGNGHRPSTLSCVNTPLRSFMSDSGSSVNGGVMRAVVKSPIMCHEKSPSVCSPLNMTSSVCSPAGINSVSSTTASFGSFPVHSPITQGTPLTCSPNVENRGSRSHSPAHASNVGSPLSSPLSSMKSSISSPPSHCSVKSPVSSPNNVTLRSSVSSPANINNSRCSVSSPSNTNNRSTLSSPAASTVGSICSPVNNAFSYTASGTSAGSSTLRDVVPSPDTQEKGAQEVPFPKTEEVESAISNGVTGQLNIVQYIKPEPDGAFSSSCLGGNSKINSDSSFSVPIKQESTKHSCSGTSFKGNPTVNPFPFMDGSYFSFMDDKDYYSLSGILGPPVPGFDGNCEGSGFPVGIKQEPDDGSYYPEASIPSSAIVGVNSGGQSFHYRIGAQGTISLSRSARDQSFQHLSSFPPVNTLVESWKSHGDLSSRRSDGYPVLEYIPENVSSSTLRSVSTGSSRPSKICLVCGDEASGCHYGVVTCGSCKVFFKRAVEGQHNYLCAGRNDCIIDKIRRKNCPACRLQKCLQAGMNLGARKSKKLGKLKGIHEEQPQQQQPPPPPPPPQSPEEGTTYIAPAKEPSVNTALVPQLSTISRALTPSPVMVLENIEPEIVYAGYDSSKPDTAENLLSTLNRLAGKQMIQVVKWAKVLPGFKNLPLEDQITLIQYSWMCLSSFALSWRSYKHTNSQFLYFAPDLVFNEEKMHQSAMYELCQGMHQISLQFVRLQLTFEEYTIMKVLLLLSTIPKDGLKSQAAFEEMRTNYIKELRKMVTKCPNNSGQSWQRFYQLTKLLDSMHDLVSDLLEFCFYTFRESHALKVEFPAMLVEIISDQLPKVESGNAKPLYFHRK
Parameters: The full length human MR gene is cloned from a human kidney or human brain cDNA library; made in house; host or cells: SF9 insect cells (pAcHLT baculovirus transfer vector)
Experimental: Mineralocorticoid Receptor Binding Assay (Method 1):
The full length human MR gene is cloned from a human kidney or human brain cDNA library. Briefly, using synthetic oligonucleotide primers (Eli Lilly and Company, Indianapolis) directed to nucleotides 20-54 and 3700-3666 of the human MR, polymerase chain reaction (PCR) is performed under standard conditions using a human cDNA library. The PCR reaction is performed in a final volume of 50 μl containing about 1μl of a 50× stock solution of polymerase; about 1 μl of a 50× stock solution of dNTP; about 5μl of an appropriate PCR buffer; about 1 μl of each primer; about 5 μl of a H. kidney or H. brain cDNA library; and about 36 μl of water. The reaction is allowed to denature for about 30 seconds at 95 degrees Celsius, anneal for about 30 seconds at 55 degrees Celsius, and extend for about 5 minutes at 72 degrees Celsius, the sequence being repeated for a total of about 35 cycles. The desired PCR product (3.68 Kb) is confirmed by gel electrophoresis and subsequently cut from the gel and stored at about −20 degrees Celsius until extraction. To extract the cDNA product from the agarose gel, the QIAEX II Gel Extraction protocol (QIAGEN, Inc.) is employed according to the manufacturer's instructions. Following extraction, the MR cDNA is cloned into an appropriate cloning vector (Zero Blunt TOPO PCR Cloning Kit (Invitrogen, Inc.) and a pAcHLT-baculovirus transfer vector (B.D./Pharminogen), then expressed in SF9 insect cells, essentially according to manufacturer's instructions. Sf9 cells are grown at a scale where gram quantity cell pellets are obtained for subsequent use in the MR binding assay. Harvested cell pellets are lysed by repeated freeze-thaw cycles (about 4) in a suitable lysis buffer then centrifuged at about 1×10^3G (with the supernatant being saved for future assays).
MR binding assays are performed in a final total volume of about 250 μl containing about 20-25 μg of protein and 0.5 nM of [^3H]-aldosterone plus varying concentrations of test compound or vehicle. The assay binding buffer consists of 30 mM sodium molybdate, 30 mM of TRIS-HCl, 5 mM sodium phosphate, 5 mM sodium pyrophosphate, and about 10% glycerol, pH=7.5.
Briefly, assays are prepared at RT in 96-well Falcon 3072 plates, each well containing 210 μof binding buffer, 10 μl of […], 10 μl of test compound/vehicle, and 20 μl of the resuspended receptor protein extract. Incubations are carried out at 4 degrees Celsius with shaking for about 16 hours. 200 μl aliquots of each incubation are filtered onto Millipore HA 0.45 micron 96-well filter plates, pre-moistened with cold 30 mM TRIS-HCl. The filter plates are suctioned dry with vacuum and immediately washed 3× with cold 30 mM TRIS-HCl. The plates are then punched out and the amount of receptor-ligand complex is determined by liquid scintillation counting using 4 ml of Ready Protein Plus™ liquid scintillation cocktail.

Ki, < 500 nM:
O=c1[nH]c2cc(C=C3c4ccccc4Sc4ccccc43)ccc2n1CCN1CCOCC1 [Example 13]
O=c1[nH]c2ccc(C=C3c4ccccc4Sc4ccccc43)cc2[nH]1 [Example 10]
Nc1cccc(C=C2c3ccccc3Sc3ccccc32)c1 [Example 9]
CC(=C1c2ccccc2Sc2ccccc21)c1cccc(NS(C)(=O)=O)c1 [Example 4, 9-[1-(3-methylsulfonoylaminophenyl)ethylene] thioxanthine]
CC(=C1c2ccccc2Sc2ccccc21)c1cccc(N)c1 [Example 6]
CN1CCN(CCn2c(=O)[nH]c3cc(C=C4c5ccccc5Sc5ccccc54)ccc32)CC1 [Example 14]
Oc1ccccc1C=C1c2ccccc2Sc2ccccc21 [Example 15]
O=c1[nH]c2cc(C=C3c4ccccc4Sc4ccccc43)ccc2o1 [Example 11]
CS(=O)(=O)Nc1cccc(C=C2c3ccccc3Sc3ccccc32)c1 [Example 8]
O=c1[nH]c2cc(C=C3c4ccccc4Sc4ccccc43)ccc2s1 [Example 12]
O=c1[nH]c2ccc(C=C3c4ccc(F)cc4Sc4cc(F)ccc43)cc2[nH]1 [Example 5, 5-(3,6-Difluoro-thioxanthen-9-ylidenemethyl)-1,3-dihydro-benzoimidazol-2-one]
